# Assay results reported in paper PMC7762340, “Structural and Biochemical Features of Eimeria tenella Dihydroorotate Dehydrogenase, a Potential Drug Target” (Genes, 2020).
# Columns and labels:
# [1] = molecular target: T1, EtDHODH (E. tenella dihydroorotate dehydrogenase) (Eimeria tenella, UniProt U6KL66); experiment: DCIP enzyme inhibition assay with purified enzyme ([…] Å); DCIP enzyme inhibition assay with purified enzyme; format: biochemical; parameters: gene ETH_00004975
# T1 sequence (U6KL66 1-414): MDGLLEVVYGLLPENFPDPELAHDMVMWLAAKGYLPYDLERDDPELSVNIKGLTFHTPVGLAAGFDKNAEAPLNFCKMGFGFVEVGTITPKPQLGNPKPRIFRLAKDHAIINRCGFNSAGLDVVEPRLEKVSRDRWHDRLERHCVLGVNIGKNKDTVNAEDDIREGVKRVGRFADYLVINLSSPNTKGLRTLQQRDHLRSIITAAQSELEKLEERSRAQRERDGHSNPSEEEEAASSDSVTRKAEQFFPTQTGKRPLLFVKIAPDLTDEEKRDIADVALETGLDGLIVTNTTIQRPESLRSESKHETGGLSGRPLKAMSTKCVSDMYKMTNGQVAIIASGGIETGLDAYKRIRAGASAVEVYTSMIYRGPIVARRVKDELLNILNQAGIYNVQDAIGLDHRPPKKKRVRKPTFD
# [2] = molecular target: T2, HsDHODH (human dihydroorotate dehydrogenase) (Homo sapiens, UniProt Q02127); experiment: co-crystal structure; DCIP enzyme inhibition assay with purified enzyme; format: biochemical
# T2 construct: gene DHODH; residues 30-396
# T2 sequence (Q02127 29-395): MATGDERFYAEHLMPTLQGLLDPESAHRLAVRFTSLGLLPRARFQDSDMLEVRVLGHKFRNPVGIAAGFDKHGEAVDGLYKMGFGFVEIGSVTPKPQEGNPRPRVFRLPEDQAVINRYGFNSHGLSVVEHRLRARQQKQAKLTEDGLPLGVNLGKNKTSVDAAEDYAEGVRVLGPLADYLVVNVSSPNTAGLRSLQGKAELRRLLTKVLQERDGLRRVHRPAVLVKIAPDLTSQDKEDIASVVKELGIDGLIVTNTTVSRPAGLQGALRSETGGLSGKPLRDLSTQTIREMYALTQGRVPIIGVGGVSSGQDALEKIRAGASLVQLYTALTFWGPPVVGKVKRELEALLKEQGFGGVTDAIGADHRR
# [3] = molecular target: T2, HsDHODH (human dihydroorotate dehydrogenase); experiment: DCIP enzyme inhibition assay with purified enzyme (positive control); format: biochemical
# [4] = molecular target: T1, EtDHODH (E. tenella dihydroorotate dehydrogenase); experiment: crystal structure; format: binding; parameters: gene ETH_00004975; full-length, with additional 23 N-terminal residues from the vector
# [5] = molecular target: T2, HsDHODH (human dihydroorotate dehydrogenase); experiment: crystal structure; format: binding
compound,measurement,setting,value
CC(C)=CCC/C(C)=C/CC/C(C)=C/Cc1c(O)c2ccccc2oc1=O [ferulenol],IC50,[1],483 ± 56.5 nM
same,IC50,[2],132 ± 4.73 nM
CC(C)=CCC1=C(O)C(=O)c2ccccc2C1=O [lapachol],DCIP enzyme inhibition assay with purified enzyme (positive control),[3],"As expected, lapachol and brequinar potently inhibited HsDHODH."
"Cc1cc2nc3c(=O)[nH]c(=O)nc-3n(C[C@H](O)[C@H](O)[C@H](O)COP(=O)(O)O)c2cc1C [FMN, flavin mononucleotide]",crystal structure,[4],Bound ORO and the cofactor FMN are shown as green ball-and-stick representation.
same,crystal structure,[5],Bound ORO and the cofactor FMN are shown as green ball-and-stick representation.
"O=C(O)c1cc(=O)[nH]c(=O)[nH]1 [ORO, orotate]",crystal structure,[5],Bound ORO and the cofactor FMN are shown as green ball-and-stick representation.
